Test results reported in patent publication US11767316B2, “Non-fused thiophene derivatives and their uses” (ENYO PHARMA, priority 2018, dated 2023).

Columns and labels:
diabetic mice model = assay: HbA1c in diabetic mice model (db/db); type: in vivo; conditions: PO 7 or 20 mg/kg BID or 40 mg/kg QD, 28 days of dosing, FIG. 1
Method: Compound #16 has been tested on a diabetic mice model. […] Therefore, this compound can be useful for treating diabetes.
Male db/db (BKS.Cg-m 1/1 Leprdb/J) mice aged 6 weeks at the time of arrival were obtained from Janvier (France) and acclimatized to their new environment. Animals were housed in groups of 2 in a light, temperature and humidity-controlled room (a 12-hour light/dark cycle, with lights off at 4 PM; 23+/−1° C.; 50% relative humidity). All animals had free access to standard Purina 5008 chow (LabDiet) and domestic-quality tap water.
The study was initiated in mice aged 8 weeks. Three days before first dosing, a blood sample was collected for determination of baseline blood glucose and hemoglobin A1c (HbA1c) levels. Based on these baseline HbA1c and fed blood glucose levels, mice were stratified into treatment groups (n=10) receiving vehicle (CMC (1.5% W/V) Sigma (ref.C9481), Tween 80 (0.25% V/V) Sigma (ref.59924) in water) or orally administered Compound #16 as follows: • 7 mg/kg, PO BID (twice a day) • 20 mg/kg, PO BID (twice a day) • 40 mg/kg PO QD (Once a day)
Throughout the experimental period, body weight and food and water intake were measured daily in the morning.
Animals were terminated after a total of 28 days of dosing. […]

[1] = tested on: H1N1 (influenza A/New Caledonia/20/99); assay: Antiviral effect on A549 cells infected with H1N1 (MUNANA neuraminidase readout); type: cell-based; conditions: H1N1 A/New Caledonia/20/99 at MOI 0.1, 48 h post-infection, MUNANA fluorescence, read-out: IC50
Method: The antiviral effect of the compounds of the invention have been tested on A549 cell lines infected with H1N1 (influenza A/New Caledonia/20/99).
Human A549 cells (80,000 cells/well in a 96 well plate) were treated with a range of concentration of test compounds and immediately infected by H1N1 A/New Caledonia/20/99 virus (clinical isolate) at MOI of 0.1 in DMEM/1% Penicillin/streptomycin supplemented with 0.25 μg/ml TPCK trypsin (Sigma) and incubated at 37° C. in 5% CO2. 48 h post-infection, supernatants (25 μl) were collected and transferred into a 96-well black flat-bottom plate, mixed with 25 μl PBS with Ca++/Mg++(Thermo Fisher) and 50 μl of 2′-(4-Methylumbelliferyl)-α-D-N-acetylneuraminic acid sodium salt hydrate stock-solution (20 μM, MUNANA, Sigma). Plates were incubated 1 h at 37° C. and reaction is stopped by adding 100 μl of Stop Solution (glycine 0.1 M pH10.7/25% ethanol). The amount of fluorescent product released by MUNANA hydrolysis (4-MU) was measured in a Tecan spectrophotometer with excitation and emission wavelengths of 365 and 450 nm respectively.

[2] = biological target: T1, CISD1 Gene Product (mitoNEET) (Homo sapiens, UniProt Q9NZ45); assay: Stability of Fe-S cluster binding of purified NEET protein (absorbance 458 nm), mitoNEET; type: biochemical
T1 sequence (Q9NZ45 33-108 limits assumed): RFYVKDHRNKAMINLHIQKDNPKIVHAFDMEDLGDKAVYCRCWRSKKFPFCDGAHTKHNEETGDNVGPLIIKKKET
Method: The modulator effect on the NEET proteins encoded by human CISD1, CISD2, and CISD3 genes by the compounds of the invention has been tested and is reported below. Particularly, the biochemical function of the NEET proteins is measured by the stability of Fe—S cluster binding of the purified NEET proteins.
The Fe—S cluster binding capacity of NEET proteins is known to be coordinated by four amino-acids in a stretch of 16 (three Cysteine and one Histidine). As the lability of the Fe—S cluster of NEET proteins is sensitive to the environment, cluster stability measurements are one of the measures of interactions of NEET proteins with small molecules and compounds. NEET protein/2Fe-2S cluster stability can be assessed by monitoring the decay in absorbance of its characteristic 458-nm peak (characteristic of the oxidized 2Fe-2S cluster) over time. Each NEET protein (mitoNEET, NAF-1 and Miner 2) was tested for its Fe—S binding in the absence or presence of a compound according to the invention (see table 3 below). […]
At pH 6, all the three NEET proteins (mitoNEET, NAF-1 and Miner 2) have a characteristic rate of loss of the bound Fe—S cluster that can be measured by the decrease of absorbance at wavelength 458 nm over time, using a spectrophotometer. […]
A reaction mix containing DMSO diluted in the Bis-Tris Buffer with or without a compound of the invention was prepared. […] The absorbance at wavelength 458 nm was taken at 5 minutes intervals at 37° C. with a spectrofluorimeter. […]
In addition to time monitoring, residual bound Fe—S cluster to NEET protein was measured at the final point of the spectrometry assay for each Test sample and compared to the Control sample data (in parenthesis table 3). This residual binding is measured by the differential percentage between the absorbance 458 nm at time zero and the absorbance 458 nm at the end of the experiment (i.e. respectively 500 or 180 minutes as described hereabove), showing the percentage of NEET protein still able to bind a Fe—S cluster. […]

## O=C(Nc1scc(C2CCc3ccccc3C2)c1C(=O)O)c1ccccc1 (centres unmarked) [#16]
Diabetic mice model
  Change of glycated hemoglobin, HbA1C: capable of reducing glycated hemoglobin
[1]
  IC50: 0.0111 µM
[2]; mitoNEET 20 μM, compound 60 μM, pH 6, 37° C., vehicle control 80
  Time (in minutes) to achieve 50% loss of bound cluster (Absorbance 458 nm): 35 (80) minutes
[2]; mitoNEET, end of experiment 180 minutes, compound 60 μM, pH 6, vehicle control 16%
  Residual cluster bound at end of experiment (Percentage Absorbance 458 nm at time zero): 0% (16%)
[2]; mitoNEET, destabiliser = time to 50% cluster loss decreased by more than 25% vs control
  Stabiliser or destabiliser of NEET protein/Fe-S cluster binding: destabilisers
